“And” between values parts separate entries of the source, which are not always exact repeats. Equal values may be shown once. Starred links: 1 amine or outer side, 2 acyl side, 3 side chain; linkers in the order of their positions; H or OH if unused. Positions of bridges follow the written chain, without caps; N, C: chain ends. Non-standard residues stand in square brackets, D forms with d. Residues, ends and D or L forms follow the SMILES beside them. Trp(2-yl) = O=C([C@H](Cc1c([*:3])[nH]c2ccccc12)N[*:1])[*:2]; X2 = [N-]=[N+]=N[C@@H]1C[C@@H](C(=O)[*:2])N([*:1])C1; Ile(4R-OH,5-OH) = C[C@H]([C@H](N)C(=O)O)[C@@H](O)CO
Tests used:
[1] = molecular target: eukaryotic RNA polymerase II (Pol II) (Homo sapiens, UniProt P24928); details: literature; cited from earlier work
HEK293 cells = type: cell-based, human; details: wt-HEK293 cells lacking OATP1B3; 96 h
Procedure: (§1) . HEK293 and HEK-OATP1B3 cells were plated at 2.5×10^3 cells/well in a 1:1 mixture of Ham's F12 with DMEM containing 10% charcoal-stripped fetal calf serum (FCS) onto poly-D-lysine-coated 96-well plates and grown for 24 hours. Subsequently, cells were incubated with amanitin analogs at 8 different concentrations (1×10^−6 M to 1.28×10^−11 M, serial 1:5 dilutions). Following 96 h of drug exposure, cell viability was determined by a BrdU incorporation assay (Cell Proliferation ELISA, BrdU, Roche) and chemiluminescence was measured using a FLUOstar Optima plate reader (BMG LABtech). Data analysis was performed with GraphPad Prism 8 (GraphPad Software, Inc., La Jolla, CA) software to plot curve fits.

CHO cells [2] = details: background statement, read-out: Ki (CHO cells readily killed); cited from earlier work
Pol II = molecular target: T1, Pol II (Homo sapiens, UniProt P24928); assay: In vitro transcription runoff assay using HeLaScribe nuclear extract; type: biochemical; details: for Transcription activity E (%): mean ± standard deviation
T1 construct: HeLaScribe® nuclear extract containing Pol II and all other transcription factors; purchased Promega; host or cells: HeLa nuclear extract (endogenous protein)
Source text: (h) In vitro transcription assay of synthetic amanitins containing analogs of Hyp: Primers were purchased from IDT via standard phosphoramidite chemistry. dNTP and rNTP were purchased from Thermofisher. GoTaq polymerase and HeLaScribe*Nuclear Extract in vitro Transcription System was purchased from Promega. Taq polymerase was purchased from NEB. [^32P] α-dGTP (3000 Ci/mmol 10 mCi/ml EasyTide) and [^32P] α-GTP (3000 Ci/mmol 10 mCi/ml EasyTide) were purchased from Perkin Elmer. QIAquick PCR purifcation kit was purchased from Qiagen. AcGFP1-N1 was a gift (Addgene plasmid #54705; http://n2t.net/addgene:54705; RRID:Addgene_54705). DNA Primer sequences were:
The DNA template for transcription runoff was synthesized by PCR with template pAcGFP-N1, and primers P1 and P2. To a final volume of 20 μL, 1 x GoTaq Buffer, 250 μM of each dNTP, 500 nM of each primers P1 and P2, […] pAcGFP-N1 and 0.05 U/μL GoTaq were employed to thermocycle for 30 cycles (30 s at 95° C., 30 s at 50° C. and 60 s at 72° C., Bio-Rad). A 1 μL aliquot of the amplified solution was resolved with 6×DNA loading dye in a 1% agarose gel containing […] and then visualized using GelDoc XR imager (Bio-Rad). Purification was completed via QIAquick PCR purification kit (Qiagen). The radioactive chromatographic standard was synthesized by PCR with template pAcGFP-N1, and primers P3 and P4. To a final volume of 50 μL, 1 x Thermopol Buffer, 200 μM of each dNTP, 500 nM of each primers P3 and P4, 10 pg/μL pAcGFP-N1 and 0.02 U/μL Vent polymerase, 1 μL [^32P] α-dGTP were employed to thermocycle for 30 cycles (30 s at 95° C., 30 s at 62° C. and 30 s at 72° C., Bio-Rad). A 1 μL aliquot of the amplified solution was resolved with 6×DNA loading dye in 8% denaturing PAGE and then visualized by autoradiography via the Typhoon 9200 imager (Molecular namics-Amersham-GE). Purification was completed via QIAquick PCR purification kit (Qiagen). The transcription runoff assay was modified from HeLaScribe® Nuclear Extract in vitro Transcription System (Promega). […]. The pellet was resolved by 8% denaturing PAGE and then visualized by autoradiography via the Typhoon 9200 imager (Molecular dynamics-Amersham-GE). Dosimetry was calculated by ImageJ, and the 3 parameter logistic fit was completed by Origin 2019 (OriginLab). […]
All data were presented in mean±standard deviation (n=3).

CHO cells [3] = assay: Viability assay against CHO cells (MTT colorimetric assay); type: cell-based, Chinese hamster; details: for % viable cells: 72 h, replicates n = 1, 2, 3, listed as N3-Pro-amanitin (3)
Procedure: (§2) (f) Cell culture: Cells were cultured in Minimum Essential Medium Eagle—Alpha Modification (α-MEM) or […] Dulbecco's Modified Eagle Medium (DMEM), purchased from Gibco. […] All cell culture plastic ware was obtained from Coming or Falcon. Cells were cultured at 37° C. in a humidified chamber with 5% CO2. When used in cell culture, DMSO was purified by filtration through a […] filter. All experiments were carried out in a laminar flow culture cabinet, unless otherwise noted.
(§3) Immortalized CHO cells had been stored in liquid nitrogen. To revive cells, a 1-mL tube of the frozen cells in medium containing 10% DMSO was warmed in a 30° C. water bath and diluted with 9 mL of fresh media. Media contained 10% FBS and 100 U/mL penicillin and […] streptomycin, unless otherwise indicated. The cells were incubated in a T-25 flask at 37° C. at 5% CO2. After 24 hours, the medium was aspirated and replaced with fresh medium. When cells reached a level of 90-100% confluence, they were sub-cultured. […] Once the cells were detached from the tissue culture flask, 3-5 mL media was added to quench the trypsin and the mixture was transferred to a 10 mL centrifuge tube. The mixture was centrifuged for 5 min at […], and the supernatant was discarded. The cells were suspended in fresh medium, diluted as required, and transferred to a new culture flask.
(§4) To assay cell viability, a nearly confluent tissue culture flask was trypsinized, and the cells were counted following treatment with Trypan blue, using a hemocytometer. The cells were then diluted to the appropriate stock concentrations in fresh medium and transferred in 100 μL to a 96-well plate using a multi-channel pipette. The number of cells plated varied from experiment to experiment. These were incubated at 37° C. and 5% CO2 for a 24-hour period to allow for adherence. The medium was aspirated, and fresh medium was added, which contained the desired additives in DMSO. The cells were then re-incubated for 72 h. At the completion of the experiment, a 100 μL aliquot of 25 mg/mL MTT in phosphate-buffered saline (PBS) was added to each well. The plate was incubated three hours further to allow for the formation of the formazan product in viable cells. The media was carefully aspirated, and the purple product was solubilized in DMSO. […] Data was processed in Microsoft Excel and GraphPad Prism. Experiments were performed in triplicates unless otherwise noted, and the error bars were calculated as the standard error of the mean.
(§5) Each cell line was plated in a 96-well plate, with 100 μL of the stock solution per well (5000 cells per well) and incubated for 24 hours. […] The cells were incubated for 72 hours, at which point viability was assessed as described.

[4] = Cell viability assay (BrdU incorporation) on HEK293-OATP1B3 cells; type: cell-based, human; details: human, HEK293-OATP1B3 cells; for viability at 96 h, 1 µM: highest used concentration of 1 μM
Procedure: as §1

HEK293-OATP1B3 cells = assay: as above; type: cell-based, human; details: HEK293-OATP1B3 vs HEK293
Procedure: as §1

[5] = Viability assay against CHO cells (MTT colorimetric assay); type: cell-based, Chinese hamster; details: Chinese hamster, CHO cells, 72 h, replicates n = 1, 2, 3, read-out: % viable cells
Procedure: as §2, §3, §4, §5

RNA-polymerase II = RNA-polymerase II (Homo sapiens, UniProt P24928); details: cited from earlier work

amanullin
Ki [1]: 10 to 40 nM

proamanullin
Ki [1]: 5000 to 20000 nM

α-amanitin [Compound 1, reference compound]
IC50 (HEK293 cells): 130 ± 80 nM | Ki (CHO cells [2]): ~500 nM | Transcription activity E (%) (Pol II; 1 nM): 85.0 ± 2.4% | Transcription activity E (%) (Pol II; 3 nM): 69.5 ± 9.4% | Transcription activity E (%) (Pol II; 10 nM): 48.1 ± 9.8% | Transcription activity E (%) (Pol II; 30 nM): 22.9 ± 2.6% | Transcription activity E (%) (Pol II; 100 nM): 9.5 ± 4.1% | IC50 (CHO cells [3]; CHO cells, MTT assay, control): 350 to 1100 nM

CC[C@H](C)[C@@H]1NC(=O)CNC(=O)[C@@H]2Cc3c([nH]c4cc(O)ccc34)[S@+]([O-])C[C@H](NC(=O)CNC1=O)C(=O)N[C@@H](CC(=O)O)C(=O)N1C[C@H](O)C[C@H]1C(=O)N[C@@H]([C@@H](C)[C@@H](O)CO)C(=O)N2 [β-amanitin, reference compound]
IC50 at 96 h ([4]; HEK293-OATP1B3 cells (OATP1B3 overexpressing HEK293), 96 h): 8.5 ± 1.1 nM | viability at 96 h, 1 µM ([4]; HEK293-OATP1B3 cells (OATP1B3 overexpressing HEK293)): 0% | fold increase in toxicity / reduction of the IC50 value on HEK293-OATP1B3 relative to HEK293 cells (HEK293-OATP1B3 cells): 15 fold

CC[C@H](C)[C@@H]1NC(=O)CNC(=O)[C@@H]2Cc3c([nH]c4ccccc34)SC[C@H](NC(=O)CNC1=O)C(=O)N[C@@H](CC(N)=O)C(=O)N1C[C@H](N=[N+]=[N-])C[C@H]1C(=O)N[C@@H]([C@@H](C)[C@@H](O)CO)C(=O)N2 [Compound 3, N3-Pro-amanitin] (cyclo(CN[X2][Ile(4R-OH,5-OH)][Trp(2-yl)]GIG); thioether 1-5)
viability at 96 h, 1 µM ([4]; HEK293 cells overexpressing OATP1B3 (HEK293-OATP1B3)): 68% | IC50 (Pol II; IC50 (nM), Table 12, n = 3, high values estimated from activity at [I]=1.0 μM): > 1000 nM | inhibitory effects (Pol II; up to 1 μM concentrations): did not exhibit any noticeable inhibitory effects | viability at 72 h, 1e-05 M ([5]; 1e-005 M): 107% | viability at 72 h, 1.25e-06 M ([5]; 1.25e-006 M): 105% | viability at 72 h, 1.56e-07 M ([5]; 1.56e-007 M): 101% | viability at 72 h, 2e-05 M ([5]; 2e-005 M): 112% | viability at 72 h, 2.5e-06 M ([5]; 2.5e-006 M): 104% | viability at 72 h, 3.125e-07 M ([5]; 3.125e-007 M): 99% | viability at 72 h, 5e-06 M ([5]; 5e-006 M): 104% | viability at 72 h, 6.25e-07 M ([5]; 6.25e-007 M): 101% | % viable cells (CHO cells [3]; 1e-005 M): 100% and 94% | % viable cells (CHO cells [3]; 1.25e-006 M): 88% and 89% | % viable cells (CHO cells [3]; 1.56e-007 M): 89% and 88% | % viable cells (CHO cells [3]; 2.5e-006 M): 95% and 88% | % viable cells (CHO cells [3]; 3.125e-007 M): 89% and 91% | % viable cells (CHO cells [3]; 5e-006 M): 88% and 89% | % viable cells (CHO cells [3]; 6.25e-007 M): 93% and 87%

amanitin
Kd (RNA-polymerase II): 3 nM

Reference: US20240082416A1, “AMATOXIN ANALOGS AND USES THEREOF” (THE UNIVERSITY OF BRITISH COLUMBIA, priority 2020, published 2024)
